Key:
human IR(B) = target: T1, human IR(B) (Homo sapiens, UniProt P06213); experiment: Insulin Receptor Phosphorylation Assay (MSD pIR assay; Methods A and B); assay type: cell-based; settings: Method B: IR phosphorylation assay, 384-well with automated liquid dispense; CHO cells expressing human IR(B); read-out: IR Activation IP†
T1 construct: expressed in transfected cells
Procedure: Insulin Receptor Phosphorylation Assays were performed as follows.
Cells were harvested and frozen in aliquots for use in the MSD pIR assay. Briefly, the frozen cells were plated in either 96-well (40,000 cells/well, Method A) or 384-well (10,000 cells/well, Method B) clear tissue culture plates and allowed to recover. IOC molecules at the appropriate concentrations were added and the cells incubated for 8 min at 37° C. The media was aspirated and chilled MSD cell lysis buffer was added as per MSD kit instructions. The cells were lysed on ice for 40 min and the lysate then mixed for 10 minutes at room temperature. The lysate was transferred to the MSD kit pIR detection plates. The remainder of the assay was carried out following the MSD kit recommended protocol.

[1] = target: T2, Human macrophage mannose receptor 1 (MRC1) (Homo sapiens, UniProt P22897); experiment: MRC1 competition binding assay with Eu-labeled mannosylated-BSA (Methods E and F); settings: Method F: MRC1 assay in a 384-well plate; read-out: MRC1 Binding IP‡
T2 sequence (P22897 19-1456): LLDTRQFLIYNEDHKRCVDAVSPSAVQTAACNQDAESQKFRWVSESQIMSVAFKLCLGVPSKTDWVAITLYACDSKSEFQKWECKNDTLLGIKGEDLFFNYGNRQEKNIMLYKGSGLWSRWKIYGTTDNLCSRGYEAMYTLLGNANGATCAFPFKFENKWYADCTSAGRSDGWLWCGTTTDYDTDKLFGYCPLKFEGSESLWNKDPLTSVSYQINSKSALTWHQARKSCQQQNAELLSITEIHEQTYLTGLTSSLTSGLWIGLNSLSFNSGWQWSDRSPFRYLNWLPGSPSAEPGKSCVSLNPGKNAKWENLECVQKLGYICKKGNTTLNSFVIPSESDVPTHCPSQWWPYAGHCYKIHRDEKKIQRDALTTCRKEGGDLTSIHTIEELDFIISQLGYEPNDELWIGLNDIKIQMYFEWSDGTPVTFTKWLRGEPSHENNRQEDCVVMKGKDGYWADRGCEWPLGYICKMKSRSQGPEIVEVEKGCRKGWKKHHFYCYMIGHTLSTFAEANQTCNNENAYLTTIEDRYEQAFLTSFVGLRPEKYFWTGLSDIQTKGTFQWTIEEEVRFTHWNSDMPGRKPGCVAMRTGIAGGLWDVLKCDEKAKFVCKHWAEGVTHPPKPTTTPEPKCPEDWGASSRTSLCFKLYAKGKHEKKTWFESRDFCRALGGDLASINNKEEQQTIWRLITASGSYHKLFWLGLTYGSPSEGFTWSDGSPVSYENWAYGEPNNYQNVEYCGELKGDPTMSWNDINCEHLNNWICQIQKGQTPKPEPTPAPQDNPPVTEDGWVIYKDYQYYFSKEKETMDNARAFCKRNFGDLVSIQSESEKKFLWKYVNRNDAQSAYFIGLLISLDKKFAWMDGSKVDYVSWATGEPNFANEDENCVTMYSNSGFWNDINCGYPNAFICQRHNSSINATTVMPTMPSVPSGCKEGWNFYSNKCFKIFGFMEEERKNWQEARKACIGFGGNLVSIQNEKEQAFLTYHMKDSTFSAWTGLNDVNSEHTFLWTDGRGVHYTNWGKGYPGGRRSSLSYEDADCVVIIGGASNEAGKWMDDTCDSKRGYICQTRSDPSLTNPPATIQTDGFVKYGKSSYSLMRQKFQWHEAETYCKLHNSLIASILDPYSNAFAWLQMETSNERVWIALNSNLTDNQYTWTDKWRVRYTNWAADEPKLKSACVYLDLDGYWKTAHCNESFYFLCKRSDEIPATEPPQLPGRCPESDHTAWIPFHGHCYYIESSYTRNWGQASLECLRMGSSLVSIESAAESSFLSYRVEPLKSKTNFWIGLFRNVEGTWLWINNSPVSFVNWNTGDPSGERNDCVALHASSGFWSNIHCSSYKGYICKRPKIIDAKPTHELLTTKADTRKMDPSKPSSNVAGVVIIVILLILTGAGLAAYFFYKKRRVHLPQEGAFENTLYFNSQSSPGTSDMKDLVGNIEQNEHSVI
Procedure: Human macrophage mannose receptor 1 (MRC1) Binding Assays were performed as follows.
The competition binding assay for MRC1 utilized a ligand, mannosylated-BSA labeled with the DELFIA Eu-N1-ITC reagent, as reported in the literature. Assay was performed either in a 96-well plate with 100 μL well volume (Method E) or in a 384-well plate with 25 μL well volume (Method F). […] The antibody was incubated in the plate for 1 hr at room temperature with shaking. The plate was washed with wash buffer 3-5 times followed by addition of MRC1 (2 ng/μl final concentration) in PBS containing 1% stabilizer BSA. The plate was incubated at room temperature with gentle shaking for 1 hr. The plate was washed three times with wash buffer. The IOC molecules in 12.5 μL (or 50 μL depending on plate format) buffer at appropriate concentrations were added followed by 12.5 μL (or 50 μL) Eu-mannosylated-BSA (0.1 nM final concentration) in 50 mM Tris, pH 7.5 containing 100 mM NaCl, 5 mM CaCl2, 1 mM MgCl2 and 0.2% stabilizer BSA. The plate was incubated for 2 hrs at room temperature with shaking followed by washing three times with wash buffer. Perkin Elmer Eu-inducer reagent was added and incubated for 30 min at room temperature prior to detection of the Eu signal (Excitation=340 nm: Emission=615 nm).

T1 sequence (P06213 28-758 limits assumed): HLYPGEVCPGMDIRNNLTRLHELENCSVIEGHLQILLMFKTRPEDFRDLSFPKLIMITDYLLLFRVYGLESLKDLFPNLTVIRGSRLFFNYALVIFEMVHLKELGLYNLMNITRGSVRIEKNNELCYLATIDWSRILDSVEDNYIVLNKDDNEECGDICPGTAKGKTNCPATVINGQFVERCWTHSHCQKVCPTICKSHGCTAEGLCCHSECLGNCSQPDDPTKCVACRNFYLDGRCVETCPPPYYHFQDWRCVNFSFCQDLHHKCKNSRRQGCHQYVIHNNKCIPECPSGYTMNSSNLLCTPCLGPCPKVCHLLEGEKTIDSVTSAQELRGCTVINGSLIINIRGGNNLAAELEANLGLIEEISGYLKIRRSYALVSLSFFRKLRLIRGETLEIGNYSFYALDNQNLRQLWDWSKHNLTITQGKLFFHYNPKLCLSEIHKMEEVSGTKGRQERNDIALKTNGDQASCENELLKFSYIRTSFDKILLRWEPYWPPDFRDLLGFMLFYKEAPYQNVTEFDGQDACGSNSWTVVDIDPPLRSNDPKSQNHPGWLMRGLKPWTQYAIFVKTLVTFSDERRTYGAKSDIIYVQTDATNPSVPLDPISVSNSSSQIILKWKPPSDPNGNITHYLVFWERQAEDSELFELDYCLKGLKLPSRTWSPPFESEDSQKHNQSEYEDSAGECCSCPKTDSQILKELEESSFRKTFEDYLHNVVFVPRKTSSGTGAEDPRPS
T1 sequence (P06213 763-1382 partner limits assumed): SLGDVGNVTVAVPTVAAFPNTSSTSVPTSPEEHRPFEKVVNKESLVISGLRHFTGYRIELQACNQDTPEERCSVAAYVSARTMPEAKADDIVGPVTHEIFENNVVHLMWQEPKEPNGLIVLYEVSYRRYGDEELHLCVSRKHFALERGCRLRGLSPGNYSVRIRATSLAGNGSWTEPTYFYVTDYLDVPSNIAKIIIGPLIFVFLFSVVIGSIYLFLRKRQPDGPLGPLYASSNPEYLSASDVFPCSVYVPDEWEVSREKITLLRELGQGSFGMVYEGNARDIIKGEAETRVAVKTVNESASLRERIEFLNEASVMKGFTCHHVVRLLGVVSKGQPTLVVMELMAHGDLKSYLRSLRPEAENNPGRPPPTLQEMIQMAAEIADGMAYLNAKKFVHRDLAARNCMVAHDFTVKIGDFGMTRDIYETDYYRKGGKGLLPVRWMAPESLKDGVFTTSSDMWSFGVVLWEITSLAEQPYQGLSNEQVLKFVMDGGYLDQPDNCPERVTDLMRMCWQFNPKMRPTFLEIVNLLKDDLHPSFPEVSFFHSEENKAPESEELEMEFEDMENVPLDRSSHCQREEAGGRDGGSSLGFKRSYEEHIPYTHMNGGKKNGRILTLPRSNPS

Compound | EC50 (human IR(B)) [nM] | IC50 [1] [nM]
CC[C@H](C)[C@H](NC(=O)CNC(=O)CCCCC(=O)N(CC(=O)NCCO[C@H]1O[C@H](CO)[C@@H](O)[C@H](O)[C@@H]1O)CC(=O)N(CCO[C@H]1O[C@H](CO)[C@@H](O)[C@H](O)[C@@H]1O)CCO[C@H]1O[C@H](CO)[C@@H](O)[C@H](O)[C@@H]1O)C(=O)N[C@H](C(=O)N[C@@H](CCC(=O)O)C(=O)N[C@@H](CCC(N)=O)C(=O)N[C@H]1CSSC[C@@H]2NC(=O)[C@H]([C@@H](C)CC)NC(=O)[C@H](CO)NC(=O)[C@H]([C@@H](C)O)NC(=O)[C@H](CSSC[C@H](NC(=O)[C@H](CC(C)C)NC(=O)[C@H](Cc3c[nH]cn3)NC(=O)[C@H](CCC(N)=O)NC(=O)[C@H](CC(N)=O)NC(=O)[C@@H](NC(=O)[C@@H](N)Cc3ccccc3)C(C)C)C(=O)NCC(=O)N[C@@H](CO)C(=O)N[C@@H](Cc3c[nH]cn3)C(=O)N[C@@H](CC(C)C)C(=O)N[C@@H](C(C)C)C(=O)N[C@@H](CCC(=O)O)C(=O)N[C@@H](C)C(=O)N[C@@H](CC(C)C)C(=O)N[C@@H](Cc3ccc(O)cc3)C(=O)N[C@@H](CC(C)C)C(=O)N[C@@H](C(C)C)C(=O)N[C@H](C(=O)NCC(=O)N[C@@H](CCC(=O)O)C(=O)N[C@@H](CCCNC(=N)N)C(=O)NCC(=O)N[C@@H](Cc3ccccc3)C(=O)N[C@@H](Cc3ccccc3)C(=O)N[C@@H](Cc3ccc(O)cc3)C(=O)N[C@H](C(=O)N3CCC[C@H]3C(=O)N[C@@H](CCCCNC(=O)CCCCC(=O)N(CC(=O)NCCO[C@H]3O[C@H](CO)[C@@H](O)[C@H](O)[C@@H]3O)CC(=O)N(CCO[C@H]3O[C@H](CO)[C@@H](O)[C@H](O)[C@@H]3O)CCO[C@H]3O[C@H](CO)[C@@H](O)[C@H](O)[C@@H]3O)C(=O)N[C@H](C(=O)O)[C@@H](C)O)[C@@H](C)O)CSSC[C@@H](C(=O)N[C@@H](CC(N)=O)C(=O)O)NC(=O)[C@H](Cc3ccc(O)cc3)NC(=O)[C@H](CC(N)=O)NC(=O)[C@H](CCC(=O)O)NC(=O)[C@H](CC(C)C)NC(=O)[C@H](CCC(N)=O)NC(=O)[C@H](Cc3ccc(O)cc3)NC(=O)[C@H](CC(C)C)NC(=O)[C@H](CO)NC2=O)NC1=O)C(C)C [IOC-60] | 1.85 | 33.1
CC[C@H](C)[C@H](NC(=O)CN)C(=O)N[C@H](C(=O)N[C@@H](CCC(=O)O)C(=O)N[C@@H](CCC(N)=O)C(=O)N[C@H]1CSSC[C@@H]2NC(=O)[C@H]([C@@H](C)CC)NC(=O)[C@H](CO)NC(=O)[C@H]([C@@H](C)O)NC(=O)[C@H](CSSC[C@H](NC(=O)[C@H](CC(C)C)NC(=O)[C@H](Cc3c[nH]cn3)NC(=O)[C@H](CCC(N)=O)NC(=O)[C@H](CC(N)=O)NC(=O)[C@@H](NC(=O)[C@H](Cc3ccccc3)NC(=O)CCCCC(=O)N(CC(=O)NCCO[C@H]3O[C@H](CO)[C@@H](O)[C@H](O)[C@@H]3O)CC(=O)N(CCO[C@H]3O[C@H](CO)[C@@H](O)[C@H](O)[C@@H]3O)CCO[C@H]3O[C@H](CO)[C@@H](O)[C@H](O)[C@@H]3O)C(C)C)C(=O)NCC(=O)N[C@@H](CO)C(=O)N[C@@H](Cc3c[nH]cn3)C(=O)N[C@@H](CC(C)C)C(=O)N[C@@H](C(C)C)C(=O)N[C@@H](CCC(=O)O)C(=O)N[C@@H](C)C(=O)N[C@@H](CC(C)C)C(=O)N[C@@H](Cc3ccc(O)cc3)C(=O)N[C@@H](CC(C)C)C(=O)N[C@@H](C(C)C)C(=O)N[C@H](C(=O)NCC(=O)N[C@@H](CCC(=O)O)C(=O)N[C@@H](CCCNC(=N)N)C(=O)NCC(=O)N[C@@H](Cc3ccccc3)C(=O)N[C@@H](Cc3ccccc3)C(=O)N[C@@H](Cc3ccc(O)cc3)C(=O)N[C@H](C(=O)N3CCC[C@H]3C(=O)N[C@@H](CCCCNC(=O)CCCCC(=O)N(CC(=O)NCCO[C@H]3O[C@H](CO)[C@@H](O)[C@H](O)[C@@H]3O)CC(=O)N(CCO[C@H]3O[C@H](CO)[C@@H](O)[C@H](O)[C@@H]3O)CCO[C@H]3O[C@H](CO)[C@@H](O)[C@H](O)[C@@H]3O)C(=O)N[C@H](C(=O)O)[C@@H](C)O)[C@@H](C)O)CSSC[C@@H](C(=O)N[C@@H](CC(N)=O)C(=O)O)NC(=O)[C@H](Cc3ccc(O)cc3)NC(=O)[C@H](CC(N)=O)NC(=O)[C@H](CCC(=O)O)NC(=O)[C@H](CC(C)C)NC(=O)[C@H](CCC(N)=O)NC(=O)[C@H](Cc3ccc(O)cc3)NC(=O)[C@H](CC(C)C)NC(=O)[C@H](CO)NC2=O)NC1=O)C(C)C [IOC-61] | 1.13 | 17.9
CC[C@H](C)[C@H](NC(=O)CN)C(=O)N[C@H](C(=O)N[C@@H](CCC(=O)O)C(=O)N[C@@H](CCC(N)=O)C(=O)N[C@H]1CSSC[C@@H]2NC(=O)[C@H]([C@@H](C)CC)NC(=O)[C@H](CO)NC(=O)[C@H]([C@@H](C)O)NC(=O)[C@H](CSSC[C@H](NC(=O)[C@H](CC(C)C)NC(=O)[C@H](Cc3c[nH]cn3)NC(=O)[C@H](CCC(N)=O)NC(=O)[C@H](CC(N)=O)NC(=O)[C@@H](NC(=O)[C@H](Cc3ccccc3)NC(=O)CCCCC(=O)N(CC(=O)NCCO[C@@H]3O[C@@H](C)[C@@H](O)[C@@H](O)[C@@H]3O)CC(=O)N(CCO[C@H]3O[C@H](CO)[C@@H](O)[C@H](O)[C@@H]3O)CCO[C@H]3O[C@H](CO)[C@@H](O)[C@H](O)[C@@H]3O)C(C)C)C(=O)NCC(=O)N[C@@H](CO)C(=O)N[C@@H](Cc3c[nH]cn3)C(=O)N[C@@H](CC(C)C)C(=O)N[C@@H](C(C)C)C(=O)N[C@@H](CCC(=O)O)C(=O)N[C@@H](C)C(=O)N[C@@H](CC(C)C)C(=O)N[C@@H](Cc3ccc(O)cc3)C(=O)N[C@@H](CC(C)C)C(=O)N[C@@H](C(C)C)C(=O)N[C@H](C(=O)NCC(=O)N[C@@H](CCC(=O)O)C(=O)N[C@@H](CCCNC(=N)N)C(=O)NCC(=O)N[C@@H](Cc3ccccc3)C(=O)N[C@@H](Cc3ccccc3)C(=O)N[C@@H](Cc3ccc(O)cc3)C(=O)N[C@H](C(=O)N3CCC[C@H]3C(=O)N[C@@H](CCCCNC(=O)CCCCC(=O)N(CC(=O)NCCO[C@@H]3O[C@@H](C)[C@@H](O)[C@@H](O)[C@@H]3O)CC(=O)N(CCO[C@H]3O[C@H](CO)[C@@H](O)[C@H](O)[C@@H]3O)CCO[C@H]3O[C@H](CO)[C@@H](O)[C@H](O)[C@@H]3O)C(=O)N[C@H](C(=O)O)[C@@H](C)O)[C@@H](C)O)CSSC[C@@H](C(=O)N[C@@H](CC(N)=O)C(=O)O)NC(=O)[C@H](Cc3ccc(O)cc3)NC(=O)[C@H](CC(N)=O)NC(=O)[C@H](CCC(=O)O)NC(=O)[C@H](CC(C)C)NC(=O)[C@H](CCC(N)=O)NC(=O)[C@H](Cc3ccc(O)cc3)NC(=O)[C@H](CC(C)C)NC(=O)[C@H](CO)NC2=O)NC1=O)C(C)C [IOC-62] | 0.77 | 5.12
